Results: the NIST ThermoML archive (doi:10.1021/je7005924)

Conditions: Liquid

CC(=O)C(C)=O [2,3-butanedione]
Conditions | vapor or sublimation pressure [kPa]
314.3 K | 19.06
320.55 K | 24.04
325.62 K | 29.03
329.85 K | 33.91
333.64 K | 39
336.76 K | 43.59
339.99 K | 48.97
342.8 K | 53.85
345.41 K | 58.83
347.62 K | 63.83
349.9 K | 68.81
351.89 K | 73.79

CC(C)=O [acetone]
Conditions | vapor or sublimation pressure [kPa]
297.67 K | 30.23
301.25 K | 35.22
307.33 K | 45.21
310.08 K | 50.4
312.52 K | 55.29
314.76 K | 60.29
316.8 K | 65.08
318.77 K | 70.07

CCC(=O)C(C)=O [2,3-pentanedione]
Conditions | vapor or sublimation pressure [kPa]
331.84 K | 15.37
338.38 K | 20.36
343.73 K | 25.35
348.13 K | 30.35
352.15 K | 35.34
355.74 K | 40.33
358.85 K | 45.32
361.89 K | 50.21
364.69 K | 55.21
367.09 K | 60.2
369.44 K | 65.19
371.61 K | 70.18
373.8 K | 75.27
